According to article PMC4974772, “In vitro anti-Leishmania activity of tetracyclic iridoids from Morinda lucida, benth” (Tropical Medicine and Health, 2016):
“And” between values parts separate entries of the source, which are not always exact repeats. Equal values may be shown once. Read-outs that look alike come from different tables or passages of the source.

Key:
[1] = system: Chang Liver (normal liver); test: Cytotoxicity on normal liver Chang Liver; format: cell-based; conditions: 48 h
Description: (§1) Table 2 Selective index of compounds tested for anti-Leishmania activity | column: IC50 (μM), 48 h / ML-2-2; IC50 (μM), 48 h / ML-2-3; IC50 (μM), 48 h / ML-F52; SI / ML-2-2; SI / ML-2-3; SI / ML-F52

[2] = system: HF-19 (normal lung fibroblasts); test: Cytotoxicity on normal lung fibroblasts HF-19; format: cell-based; conditions: 48 h
Description: as §1

[3] = system: Leishmania 010 (field strain of L. enriettii) promastigotes; test: MIC by microscopy on Leishmania field strain 010 promastigotes; format: cell-based, L. enriettii (010)
Description: (§2) The field strain of L. enriettii (010) promastigotes, which had been isolated in Ghana, and the lab strain, Leishmania hertigi promastigotes, were used in this study because of their availability. Parasites were cultured in vitro according to conditions established previously. Log phase of parasites (1 × 10^6 parasites/ml) was diluted to a parasitemia of 3 × 10^5 parasites/ml with M199 medium and used for the drug assay. Estimation of parasitemia was done with the Neubauer’s counting chamber.
Promastigotes of Leishmania 010 were seeded and incubated in the presence or absence of (50–0.78 μM) compounds for 96 h and the minimum inhibitory concentration (MIC) of the compounds determined by microscopy.
The aim of the study was to investigate the anti-Leishmania properties of the three novel tetracyclic iridoid compounds previously found to have anti-trypanosome activity. In the determination of the effect of Molucidin, ML-2-3, and ML-F52 on L. hertigi and 010, parasites were challenged with 0–50 μM of each compound for 48 and 96 h to determine MIC and the concentration of compounds that inhibited parasite growth by 50 % (IC50) by microscopy and fluorescence-activated cell sorting (FACS) analysis, respectively. […] All three compounds share same side chains, iridoid tetracyclic skeleton, but differ in their functional group region. […]

L. hertigi parasites = test: Fluor-microscopy analysis using DAPI (nucleus/kinetoplast count, morphology); format: cell-based, Leishmania hertigi; conditions: 4 μM, 48 h, DAPI staining
Description: Parasites were incubated for 24 h under appropriate conditions (25 °C) with appropriate concentrations of active compounds, Molucidin and ML-F52. Parasites were then harvested and fixed with 4 % paraformaldehyde at room temperature for 5 min. Washing steps were carried out with PBS and PBST (0.1 % Triton X 100 in PBS) at room temperature for 5 min and 15 min, respectively. The parasites were stained with 4’,6-diamidino-2’-phenylindole dihydrochloride (DAPI) (5 μg/ml DAPI in PBS) for 10 min. After washing steps as above, the slides were mounted using parmafluor mounting reagent and covered with cover slips. The slides were observed under the Olympus fluorescent microscope (Olympus BX53) to detect any phenotypic changes in L. hertigi parasites.
To investigate the effect of Molucidin and ML-F52 on the morphology and cell division of L. hertigi, we performed fluor-microscope observation with DAPI staining after incubation of parasite with 4 μM of Molucidin and ML-F52 for 48 h. […] The inhibition of cytokinesis might imply the inability of cells to replicate in the mammalian host and increase the parasite burden. This may prevent the parasites from over running the host-immune and may give the host the edge to clear the infection. […]

Hs-888Lu (normal lung) = test: Cytotoxicity on normal lung Hs-888Lu; format: cell-based; conditions: 48 h
Description: as §1

[4] = system: Leishmania hertigi promastigotes; test: In vitro viacount assay (Guava viacount, FACS) on L. hertigi promastigotes; format: cell-based
Description: as §2
Leishmania promastigote forms of L. hertigi parasites were seeded and incubated in the presence or absence of (50–0.78 μM) compounds (dissolved in DMSO) for 48 h, after which the Guava reagent for viacount (Millipore) was added to the culture in the ratio of 1:1 and incubated for 30 min. Analysis was performed using the Millipore guava easyCyte 5HT (USA) according to the manufacture’s instruction.
The aim of the study was to investigate the anti-Leishmania properties of the three novel tetracyclic iridoid compounds previously found to have anti-trypanosome activity. In the determination of the effect of Molucidin, ML-2-3, and ML-F52 on L. hertigi and 010, parasites were challenged with 0–50 μM of each compound for 48 and 96 h to determine MIC and the concentration of compounds that inhibited parasite growth by 50 % (IC50) by microscopy and fluorescence-activated cell sorting (FACS) analysis, respectively. […] All three compounds share same side chains, iridoid tetracyclic skeleton, but differ in their functional group region. Molucidin and ML-F52 are esters while ML-2-3 is carboxylic acid. The functional groups may play a key role in the activity of the compounds against Leishmania.

[5] = system: NBIRGB (normal skin fibroblasts); test: Cytotoxicity on normal skin fibroblasts NBIRGB; format: cell-based; conditions: 48 h
Description: as §1

Structure (SMILES)	IC50 [1]	IC50 [2]	anti-Leishmania activity ([3]; 010 field strain, 0–50 μM, 96 h)	MIC after 96 h (010) ([3]; promastigotes, 50–0.78 μM, microscopy)	effect on parasite morphology (L. hertigi parasites)	2N/2K cells (two sets of nucleus and kinetoplast) (L. hertigi parasites; microscopic counting, DMSO-treated cells 10 % 2N/2K)	IC50 (Hs-888Lu (normal lung))	anti-Leishmania activity ([4]; L. hertigi, 0–50 μM, 48 h)	IC50 ([4]; promastigotes, 48 h, 50–0.78 μM, Guava viacount FACS, read-out: IC50 after 48 h (L. hertigi))	IC50 [5]	IC50 ([4]; Leishmania hertigi, positive control, strain not stated in footnote, read-out: IC50 of amphotericin B (positive control))
COC(=O)C1=CO[C@@H]2O[C@H]3/C(=C\c4ccc(O)c(OC)c4)C(=O)O[C@]34C=C[C@H]1[C@H]24 [Molucidin]	9.34 µM	14.2 µM	had anti-Leishmania activity	4.167 µM and 4.17 µM	induced short stumpy form parasite cells	30–40%	9.29 µM	had anti-Leishmania activity	4.24 µM	7.11 µM	
C[C@@H]1[C@H](O)[C@@H](C)/C=C/C=C/C=C/C=C/C=C/C=C/C=C/[C@H](O[C@@H]2O[C@H](C)[C@@H](O)[C@H](N)[C@@H]2O)C[C@@H]2O[C@](O)(C[C@@H](O)C[C@@H](O)[C@H](O)CC[C@@H](O)C[C@@H](O)CC(=O)O[C@H]1C)C[C@H](O)[C@H]2C(=O)O [amphotericin B, reference compound]											0.1 µg/mL
